Experimental data taken from patent US5556744A, “Methods and compositions for diagnosing and treating certain HIV infected patients” (The Trustees of the University of Pennsylvania, priority 1994, dated 1996).

Test system: maternal HIV+ sera (antibodies)
Assay: RIA / ELISA binding of maternal HIV+ sera to gp120 and gp41 peptides (Example 3)
Parameters: species or system human
Procedure: Radioimmunoassay (RIA) and enzyme-linked immunosorbent assay (ELISA) were performed by standard methodologies [E. Engvall, Meth. Immunol., 70:419-439 (1980); S. K. Pierce et al, J. Exp. Med., 144:1254-1262 (1976)]. Peptides were dissolved in 0.05M carbonate-bicarbonate buffer (pH 9.6) at a concentration of 10 μg/ml. Fifty μl (500 ng) of the peptides were immobilized in 96 well polyvinylchloride plates (Dynatech Laboratories, Inc.) overnight at 4° C. Plates were washed and non-specific sites were blocked with PBS containing 1% BSA overnight at 4° C.
Dilutions of HIV positive maternal sera were made in blocking buffer at dilutions of 1:50 and 1:500 and incubated in peptide coated plates overnight at 4° C. Plates were washed with PBS and incubated with 75,000 cpm of ^125 I-labelled goat anti-human IgG. The antibody was iodinated by a chloramine T method [W. V. Williams et al, Proc. Natl. Acad. Sci. USA, 85:6488-6492 (1988)]. Plates were washed, dried and counted in a gamma counter to measure specific binding. Normal human serum (i.e., HIV seronegative) was used as a control.
Alternatively, ELISA assays were performed in polystyrene plates (Dynatech Laboratories, Inc) in which 0.05% Tween 20 (Sigma Chemical Co.) was included in the washing, blocking and dilution buffers. The secondary antibody used was goat […] Ig conjugated to horseradish peroxidase (HRP) (Sigma Chemical Co). The substrate used for color development was 3,3',5,5' tetramethyl-benzidine dihydrochloride (TMB) (Sigma Chemical Co). Absorbance of samples was measured in a Dynatech MR5000 (Dynatech Laboratories, Inc.) plate reader and expressed as an optical density at wavelength of 450 nm (OD450).
The following key is used for the designation of specific binding of the maternal sera samples to the peptides: The minus sign, -, is equivalent to the specific OD450 or cpm of sera sample binding to peptide divided by the specific OD450 or cpm of NHS sample binding to peptide, which value is less than 2. The plus sign, +, is equivalent to the specific OD450 or cpm of sera sample binding to peptide divided by the specific OD450 or cpm of NHS sample binding to peptide, which value is between 2 to 3.
Specific binding is defined as the difference between the OD450 or cpm of sera to wells with peptide and the OD450 or cpm of sera to wells without peptide.
Comparisons of number of peptides which bound maternal serum samples were made between the transmission group and the nontransmission group. The data was analyzed using the unpaired student's test. For the determination of differences in the binding of specific peptides between transmission and non-transmission groups, the Spearman's rank-order correlation test was performed.

[1] = Serum No. 1, Non-Transmission Group
[2] = Serum No. 2, Non-Transmission Group
[3] = Serum No. 3, Non-Transmission Group
[4] = Serum No. 4, Transmission Group
[5] = Serum No. 5, Transmission Group
[6] = Serum No. 6, Non-Transmission Group
[7] = Serum No. 7, Non-Transmission Group
[8] = Serum No. 8, Non-Transmission Group
[9] = Serum No. 9, Non-Transmission Group
[10] = Serum No. 10, Transmission Group
[11] = Serum No. 11, Non-Transmission Group
[12] = Serum No. 12, Non-Transmission Group
[13] = Serum No. 13, Transmission Group
[14] = Serum No. 14, Transmission Group
[15] = Serum No. 15, Transmission Group
[16] = Serum No. 16, Non-Transmission Group
[17] = Serum No. 17, Non-Transmission Group
[18] = Serum No. 18, Non-Transmission Group
[19] = Serum No. 19, Transmission Group
[20] = Serum No. 20, Non-Transmission Group

| Sequence | Binding of maternal HIV+ serum to peptide (sera/NHS ratio) [1] | Binding of maternal HIV+ serum to peptide (sera/NHS ratio) [2] | Binding of maternal HIV+ serum to peptide (sera/NHS ratio) [3] | Binding of maternal HIV+ serum to peptide (sera/NHS ratio) [4] | Binding of maternal HIV+ serum to peptide (sera/NHS ratio) [5] | Binding of maternal HIV+ serum to peptide (sera/NHS ratio) [6] | Binding of maternal HIV+ serum to peptide (sera/NHS ratio) [7] | Binding of maternal HIV+ serum to peptide (sera/NHS ratio) [8] | Binding of maternal HIV+ serum to peptide (sera/NHS ratio) [9] | Binding of maternal HIV+ serum to peptide (sera/NHS ratio) [10] | Binding of maternal HIV+ serum to peptide (sera/NHS ratio) [11] | Binding of maternal HIV+ serum to peptide (sera/NHS ratio) [12] | Binding of maternal HIV+ serum to peptide (sera/NHS ratio) [13] | Binding of maternal HIV+ serum to peptide (sera/NHS ratio) [14] | Binding of maternal HIV+ serum to peptide (sera/NHS ratio) [15] | Binding of maternal HIV+ serum to peptide (sera/NHS ratio) [16] | Binding of maternal HIV+ serum to peptide (sera/NHS ratio) [17] | Binding of maternal HIV+ serum to peptide (sera/NHS ratio) [18] | Binding of maternal HIV+ serum to peptide (sera/NHS ratio) [19] | Binding of maternal HIV+ serum to peptide (sera/NHS ratio) [20] | further results |
| --- | --- | --- | --- | --- | --- | --- | --- | --- | --- | --- | --- | --- | --- | --- | --- | --- | --- | --- | --- | --- | --- |
| ASWSNKSLEQIWNNM [Peptide 36] | - (specific OD450 or cpm of sera sample binding to peptide divided by the specific OD450 or cpm of NHS sample binding to peptide, which value is less than 2) | - (specific OD450 or cpm of sera sample binding to peptide divided by the specific OD450 or cpm of NHS sample binding to peptide, which value is less than 2) | - (specific OD450 or cpm of sera sample binding to peptide divided by the specific OD450 or cpm of NHS sample binding to peptide, which value is less than 2) | - (specific OD450 or cpm of sera sample binding to peptide divided by the specific OD450 or cpm of NHS sample binding to peptide, which value is less than 2) | - (specific OD450 or cpm of sera sample binding to peptide divided by the specific OD450 or cpm of NHS sample binding to peptide, which value is less than 2) | - (specific OD450 or cpm of sera sample binding to peptide divided by the specific OD450 or cpm of NHS sample binding to peptide, which value is less than 2) | - (specific OD450 or cpm of sera sample binding to peptide divided by the specific OD450 or cpm of NHS sample binding to peptide, which value is less than 2) | - (specific OD450 or cpm of sera sample binding to peptide divided by the specific OD450 or cpm of NHS sample binding to peptide, which value is less than 2) | - (specific OD450 or cpm of sera sample binding to peptide divided by the specific OD450 or cpm of NHS sample binding to peptide, which value is less than 2) | - (specific OD450 or cpm of sera sample binding to peptide divided by the specific OD450 or cpm of NHS sample binding to peptide, which value is less than 2) | - (specific OD450 or cpm of sera sample binding to peptide divided by the specific OD450 or cpm of NHS sample binding to peptide, which value is less than 2) | - (specific OD450 or cpm of sera sample binding to peptide divided by the specific OD450 or cpm of NHS sample binding to peptide, which value is less than 2) | - (specific OD450 or cpm of sera sample binding to peptide divided by the specific OD450 or cpm of NHS sample binding to peptide, which value is less than 2) | - (specific OD450 or cpm of sera sample binding to peptide divided by the specific OD450 or cpm of NHS sample binding to peptide, which value is less than 2) | - (specific OD450 or cpm of sera sample binding to peptide divided by the specific OD450 or cpm of NHS sample binding to peptide, which value is less than 2) | - (specific OD450 or cpm of sera sample binding to peptide divided by the specific OD450 or cpm of NHS sample binding to peptide, which value is less than 2) | - (specific OD450 or cpm of sera sample binding to peptide divided by the specific OD450 or cpm of NHS sample binding to peptide, which value is less than 2) | - (specific OD450 or cpm of sera sample binding to peptide divided by the specific OD450 or cpm of NHS sample binding to peptide, which value is less than 2) | - (specific OD450 or cpm of sera sample binding to peptide divided by the specific OD450 or cpm of NHS sample binding to peptide, which value is less than 2) | - (specific OD450 or cpm of sera sample binding to peptide divided by the specific OD450 or cpm of NHS sample binding to peptide, which value is less than 2) | – |
| ATEKLWVTVYYGVPVWLEATTTL [Peptide 60] | - (specific OD450 or cpm of sera sample binding to peptide divided by the specific OD450 or cpm of NHS sample binding to peptide, which value is less than 2) | - (specific OD450 or cpm of sera sample binding to peptide divided by the specific OD450 or cpm of NHS sample binding to peptide, which value is less than 2) | - (specific OD450 or cpm of sera sample binding to peptide divided by the specific OD450 or cpm of NHS sample binding to peptide, which value is less than 2) | - (specific OD450 or cpm of sera sample binding to peptide divided by the specific OD450 or cpm of NHS sample binding to peptide, which value is less than 2) | - (specific OD450 or cpm of sera sample binding to peptide divided by the specific OD450 or cpm of NHS sample binding to peptide, which value is less than 2) | - (specific OD450 or cpm of sera sample binding to peptide divided by the specific OD450 or cpm of NHS sample binding to peptide, which value is less than 2) | - (specific OD450 or cpm of sera sample binding to peptide divided by the specific OD450 or cpm of NHS sample binding to peptide, which value is less than 2) | - (specific OD450 or cpm of sera sample binding to peptide divided by the specific OD450 or cpm of NHS sample binding to peptide, which value is less than 2) | - (specific OD450 or cpm of sera sample binding to peptide divided by the specific OD450 or cpm of NHS sample binding to peptide, which value is less than 2) | - (specific OD450 or cpm of sera sample binding to peptide divided by the specific OD450 or cpm of NHS sample binding to peptide, which value is less than 2) | - (specific OD450 or cpm of sera sample binding to peptide divided by the specific OD450 or cpm of NHS sample binding to peptide, which value is less than 2) | - (specific OD450 or cpm of sera sample binding to peptide divided by the specific OD450 or cpm of NHS sample binding to peptide, which value is less than 2) | - (specific OD450 or cpm of sera sample binding to peptide divided by the specific OD450 or cpm of NHS sample binding to peptide, which value is less than 2) | - (specific OD450 or cpm of sera sample binding to peptide divided by the specific OD450 or cpm of NHS sample binding to peptide, which value is less than 2) | - (specific OD450 or cpm of sera sample binding to peptide divided by the specific OD450 or cpm of NHS sample binding to peptide, which value is less than 2) | - (specific OD450 or cpm of sera sample binding to peptide divided by the specific OD450 or cpm of NHS sample binding to peptide, which value is less than 2) | - (specific OD450 or cpm of sera sample binding to peptide divided by the specific OD450 or cpm of NHS sample binding to peptide, which value is less than 2) | - (specific OD450 or cpm of sera sample binding to peptide divided by the specific OD450 or cpm of NHS sample binding to peptide, which value is less than 2) | - (specific OD450 or cpm of sera sample binding to peptide divided by the specific OD450 or cpm of NHS sample binding to peptide, which value is less than 2) | - (specific OD450 or cpm of sera sample binding to peptide divided by the specific OD450 or cpm of NHS sample binding to peptide, which value is less than 2) | Binding of maternal sera to peptide (in words) (Example 3): No binding |
